Measurements taken from patent US11447487B2, “Spiroheptanyl hydantoins as rock inhibitors” (BRISTOL-MYERS SQUIBB COMPANY, priority 2017, dated 2022).
pIC50: −log10 of the molar value.

target: ROCK2 (Homo sapiens (Human), UniProt O75116); assay: ROCK assay (Caliper LABCHIP peptide phosphorylation); type: biochemical; details: 5 μM ATP, 1.5 μM peptide substrate
Protocol: The effectiveness of compounds of the present invention as ROCK inhibitors can be determined in a 30 μL assay containing 20 mM HEPES, pH 7.5, 20 mM MgCl2, 0.015% Brij-35, 4 mM DTT, 5 μM ATP and 1.5 μM peptide substrate (FITC-AHA-AKRRRLSSLRA-OH) (SEQ ID No. 1). Compounds were dissolved in DMSO so that the final concentration of DMSO was <2%, and the reaction was initiated with Rho kinase variants. After incubation, the reaction was terminated by the addition of EDTA and the phosphorylated and non-phosphorylated peptides separated using a LABCHIP® 3000 Reader (Caliper Life Sciences). […] Compounds were tested in dose-response format, and the inhibition of kinase activity was calculated at each concentration of compound. The inhibition data were fit using a curve-fitting program to determine the IC50; i.e., the concentration of compound required to inhibit 50% of kinase activity. Representative Examples were tested in the ROCK assay described above and found having ROCK inhibitory activity. A range of ROCK inhibitory activity (IC50 values) of ≤50 μM (50000 nM) was observed. Table A below lists the ROCK IC50 values measured for the following examples.

ROCK2, sequence (O75116 whole entry, species assumed): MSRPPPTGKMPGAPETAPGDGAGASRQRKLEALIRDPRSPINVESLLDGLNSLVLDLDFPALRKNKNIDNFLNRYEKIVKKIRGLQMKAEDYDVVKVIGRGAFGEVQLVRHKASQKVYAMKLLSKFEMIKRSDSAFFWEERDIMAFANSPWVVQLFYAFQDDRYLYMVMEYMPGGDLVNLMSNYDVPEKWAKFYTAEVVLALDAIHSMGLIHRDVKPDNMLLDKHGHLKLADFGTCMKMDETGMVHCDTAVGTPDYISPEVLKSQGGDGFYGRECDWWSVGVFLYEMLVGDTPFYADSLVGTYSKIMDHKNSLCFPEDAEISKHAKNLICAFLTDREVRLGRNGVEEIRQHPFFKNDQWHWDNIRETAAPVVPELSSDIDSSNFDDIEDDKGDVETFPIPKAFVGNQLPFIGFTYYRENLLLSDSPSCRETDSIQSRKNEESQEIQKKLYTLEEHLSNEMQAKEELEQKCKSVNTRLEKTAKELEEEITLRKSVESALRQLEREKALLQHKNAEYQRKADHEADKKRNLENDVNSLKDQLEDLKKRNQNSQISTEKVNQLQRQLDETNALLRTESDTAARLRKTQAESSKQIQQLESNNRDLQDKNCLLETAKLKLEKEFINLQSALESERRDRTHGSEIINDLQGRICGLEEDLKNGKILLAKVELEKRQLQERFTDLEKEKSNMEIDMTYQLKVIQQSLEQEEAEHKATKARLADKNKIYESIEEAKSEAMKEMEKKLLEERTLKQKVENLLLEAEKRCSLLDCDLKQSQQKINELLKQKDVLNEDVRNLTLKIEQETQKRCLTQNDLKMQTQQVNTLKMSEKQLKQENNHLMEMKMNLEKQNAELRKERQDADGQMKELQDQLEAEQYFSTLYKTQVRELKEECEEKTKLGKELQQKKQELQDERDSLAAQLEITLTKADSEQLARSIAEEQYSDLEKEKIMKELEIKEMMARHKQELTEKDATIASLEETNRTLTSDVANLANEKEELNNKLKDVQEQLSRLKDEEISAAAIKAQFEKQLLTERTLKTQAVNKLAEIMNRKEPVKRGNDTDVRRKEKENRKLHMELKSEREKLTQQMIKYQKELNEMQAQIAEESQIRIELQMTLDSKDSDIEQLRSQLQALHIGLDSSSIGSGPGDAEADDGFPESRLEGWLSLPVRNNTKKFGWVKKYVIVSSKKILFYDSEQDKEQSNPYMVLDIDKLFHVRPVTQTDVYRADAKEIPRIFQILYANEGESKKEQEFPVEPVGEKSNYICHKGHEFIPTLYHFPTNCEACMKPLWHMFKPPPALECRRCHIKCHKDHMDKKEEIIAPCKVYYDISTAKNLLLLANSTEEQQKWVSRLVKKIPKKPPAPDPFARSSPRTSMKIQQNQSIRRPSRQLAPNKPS

| pIC50 | Compound |
| --- | --- |
| 6.54 | CC(C)(O)CC1NC(=O)N([C@H]2C[C@@]3(C[C@H](Oc4ncccc4C(N)=O)C3)C2)C1=O (stereo partly drawn) [Example 58, 2-{[(αR)-6-[4-(2-hydroxy-2-methyl-propyl)-2,5-dioxo-imidazolidin-1-yl]-spiro[3.3]heptan-2-yl]oxy}pyridine-3-carboxamide] |
| 6.38 | CC(C)(O)CCC1NC(=O)N([C@H]2C[C@@]3(C[C@H](Oc4ncccc4C(N)=O)C3)C2)C1=O (stereo partly drawn) [Example 62, 2-{[(αR)-6-[4-(3-hydroxy-3-methyl-butyl)-2,5-dioxo-imidazolidin-1-yl]-spiro[3.3]heptan-2-yl]oxy}pyridine-3-carboxamide] |
| 6.21 | NC(=O)c1cccnc1O[C@H]1C[C@]2(C1)C[C@H](N1C(=O)C(=O)N(CC3CCC3)C1=O)C2 (stereo partly drawn) [Example 63, 2-{[(αR)-6-[3-(cyclobutyl-methyl)-2,4,5-tri-oxoimidazolidin-1-yl]spiro[3.3]-heptan-2-yl]oxy}-pyridine-3-carbox-amide] |
| 6.01 | CC(C)CCN1C(=O)C(=O)N([C@H]2C[C@@]3(C[C@H](Oc4ncccc4C(N)=O)C3)C2)C1=O (stereo partly drawn) [Example 65, 2-{[(αR)-6-[3-(3-methylbutyl)-2,4,5-trioxo-imidazolidin-1-yl]spiro[3.3]-heptan-2-yl]oxy}-pyridine-3-carbox-amide] |
| 5.81 | NC(=O)c1cccnc1O[C@H]1C[C@]2(C1)C[C@H](N1C(=O)NC(CCCS(N)(=O)=O)C1=O)C2 (stereo partly drawn) [Example 66, 2-{[(αR)-6-[2,5-dioxo-4-(3-sulfam-oylpropyl)imidazol-idin-1-yl]spiro-[3.3]heptan-2-yl]-oxy}pyridine-3-carboxamide] |
| 5.75 | CC(C)CN1C(=O)C(=O)N([C@H]2C[C@@]3(C[C@H](Oc4ncccc4C(N)=O)C3)C2)C1=O (stereo partly drawn) [Example 67, 2-{[(αR)-6-[3-(2-methylpropyl)-2,4,5-trioxo-imidazolidin-1-yl]-spiro[3.3]heptan-2-yl]oxy}pyridine-3-carboxamide] |
| 7.80 | NC(=O)c1cccnc1O[C@H]1C[C@]2(C1)C[C@H](N1C(=O)NC(CC3CC4CCC3C4)C1=O)C2 (stereo partly drawn) [Example 69, 2-{[(αR)-6-[4-({bicyclo[2.2.1]-heptan-2-yl]}-methyl)-2,5-dioxo-imidazolidin-1-yl]-spiro[3.3]heptan-2-yljoxy}pyridine-3-carboxamide] |
| 7.70 | NC(=O)c1cccnc1O[C@H]1C[C@]2(C1)C[C@H](N1C(=O)NC(CC3CC4CCC3CC4)C1=O)C2 (stereo partly drawn) [Example 70, 2-{[(αR)-6-[4-({bicyclo[2.2.2]-octan-2-yl}-methyl)-2,5-dioxo-imidazolidin-1-yl]spiro[3.3]-heptan-2-yl]oxy}-pyridine-3-carbox-amide] |
| 7.44 | CC(CCC1NC(=O)N([C@H]2C[C@@]3(C[C@H](Oc4ncccc4C(N)=O)C3)C2)C1=O)C(F)(F)F (stereo partly drawn) [Example 71, 2-{[(αR)-6-[2,5-dioxo-4-(4,4,4-trifluoro-3-methyl-butyl)imidazolidin-1-yl]spiro[3.3]-heptan-2-yl]oxy}-pyridine-3-carbox-amide] |
| 6.05 | Cc1c(CC2NC(=O)N([C@H]3C[C@@]4(C[C@H](Oc5ncccc5C(N)=O)C4)C3)C2=O)cnn1C (stereo partly drawn) [Example 72, 2-{[(αR)-6-{4-[(1,5-dimethyl-1H-pyrazol-4-yl)-methyl]-2,5-dioxo-imidazolidin-1-yl}-spiro[3.3]heptan-2-yl]oxy}pyridine-3-carboxamide] |
| 5.64 | NC(=O)c1cccnc1O[C@H]1C[C@]2(C1)C[C@H](N1C(=O)NC(Cc3ccncc3)C1=O)C2 (stereo partly drawn) [Example 73, 2-{[(αR)-6-{2,5-dioxo-4-[(pyridin-4-yl)methyl]-imidazolidin-1-yl}-spiro[3.3]heptan-2-yl]oxy}pyridine-3-carboxamide] |
| 7.12 | [H][C@]1(Oc2ncccc2C(N)=O)C[C@@]2(C[C@H](N3C(=O)C[C@H](CCc4ccccc4)NC3=O)C2)C1 (stereo partly drawn) [Example 74] |
| 6.86 | CC[C@H](C)[C@H]1CC(=O)N([C@H]2C[C@@]3(C[C@H](Oc4ncccc4C(N)=O)C3)C2)C(=O)N1 (stereo partly drawn) [Example 75, 2-{[(αR)-6-[(4R)-4-[(2S)-butan-2-yl]-2,6-dioxo-1,3-diazinan-1-yl]-spiro[3.3]heptan-2-yl]oxy}pyridine-3-carboxamide] |
| 6.21 | NC(=O)c1cccnc1O[C@H]1C[C@]2(C1)C[C@H](N1C(=O)C[C@H](c3cccc(Br)c3)NC1=O)C2 (stereo partly drawn) [Example 77, 2-{[(αR)-6-[(4R)-4-(3-bromophenyl)-2,6-dioxo-1,3-diazinan-1-yl]-spiro[3.3]heptan-2-yl]oxy}pyridine-3-carboxamide] |
| 6.02 | C=CC[C@@H]1CC(=O)N([C@H]2C[C@@]3(C[C@H](Oc4ncccc4C(N)=O)C3)C2)C(=O)N1 (stereo partly drawn) [Example 78, 2-{[(αR)-6-[(4R)-2,6-dioxo-4-(prop-2-en-1-yl)-1,3-diazinan-1-yl]-spiro[3.3]heptan-2-yl]oxy}pyridine-3-carboxamide] |
| 6.88 | [H][C@]1(Oc2ncccc2C(N)=O)C[C@]2(C[C@@H](N3C(=O)NCC(CC(C)C)C3=O)C2)C1 (stereo partly drawn) [Example 79] |
| 8.70 | [H][C@]1(Oc2ncccc2C(N)=O)C[C@]2(C[C@@H](N3C(=O)CN(c4cccc(Cl)c4)C3=O)C2)C1 (stereo partly drawn) [Example 80, 2-(((aR)-6-(3-(3-chlorophenyl)-2,5-dioxoimidazolidin-1-yl)spiro[3.3]heptan-2-yl)oxy)nicotinamide] |
| 8.52 | NC(=O)c1cccnc1OC1CC2(C1)CC(N1C(=O)CN(c3ccccc3OC(F)F)C1=O)C2 (stereo not drawn) [Example 81, 2-(((αR)-6-(3-(2-(difluoromethoxy)phenyl)-2,5-dioxoimidazolidin-1-yl)spiro[3.3]heptan-2-yl)oxy)nicotinamide] |
| 8.30 | NC(=O)c1cccnc1O[C@H]1C[C@]2(C1)C[C@H](N1C(=O)CN(c3cccc(C(F)(F)F)c3)C1=O)C2 (stereo partly drawn) [Example 82, 2-(((αR)-6-(2,5-dioxo-3-(3-(trifluoromethyl)phenyl)imidazolidin-1-yl)spiro[3.3]heptan-2-yl)oxy)nicotinamide] |
| 8.05 | NC(=O)c1cccnc1O[C@H]1C[C@]2(C1)C[C@H](N1C(=O)CN(c3ccc(Oc4ccccc4)cc3)C1=O)C2 (stereo partly drawn) [Example 83, 2-(((αR)-6-(2,5-dioxo-3-(4-phenoxyphenyl)imidazolidin-1-yl)spiro[3.3]heptan-2-yl)oxy)nicotinamide] |
| 7.77 | NC(=O)c1cccnc1O[C@H]1C[C@]2(C1)C[C@H](N1C(=O)CN(c3ccc(Cc4ccccc4)cc3)C1=O)C2 (stereo partly drawn) [Example 84, 2-(((αR)-6-(3-(4-benzylphenyl)-2,5-dioxoimidazolidin-1-yl)spiro[3.3]heptan-2-yl)oxy)nicotinamide] |
| 8.22 | NC(=O)c1cccnc1O[C@H]1C[C@]2(C1)C[C@H](N1C(=O)CN(c3cccc(F)c3)C1=O)C2 (stereo partly drawn) [Example 85, 2-(((αR)-6-(3-(3-fluorophenyl)-2,5-dioxoimidazolidin-1-yl)spiro[3.3]heptan-2-yl)oxy)nicotinamide] |
| 8.30 | NC(=O)c1cccnc1O[C@H]1C[C@]2(C1)C[C@H](N1C(=O)CN(c3ccc(C(F)(F)F)cc3)C1=O)C2 (stereo partly drawn) [Example 87, 2-(((αR)-6-(2.5-dioxo-3-(4-(trifluoromethyl)phenyl)imidazolidin-1-yl)spiro[3.3]heptan-2-yl)oxy)nicotinamide] |
| 7.26 | CC(C)(O)COc1cccc(N2CC(=O)N([C@H]3C[C@@]4(C[C@H](Oc5ncccc5C(N)=O)C4)C3)C2=O)c1 (stereo partly drawn) [Example 88, 2-(((αR)-6-(3-(3-(2-hydroxy-2-methylpropoxy)phenyl)-2,5-dioxoimidazolidin-1-yl)spiro[3.3]heptan-2-yl)oxy)nicotinamide] |
